Assay results: patent US9505753B2, “Inhibitors of D-amino acid oxidase” (THE JOHNS HOPKINS UNIVERSITY, priority 2012, dated 2016)

Target: Porcine DAAO (Sus scrofa (Pig), UniProt P00371)
Experiment: In vitro D-amino acid oxidase (DAAO) assay, porcine enzyme
Type: biochemical
Details: values marked *: Porcine DAAO was used to measure inhibitory potency; read-out: Inhibition of DAAO IC50
Procedure: (§1) A reliable 96-well plate D-amino acid oxidase (DAAO) assay was developed based on previously published reports (J. Biol. Chem. 277: 27782 (2002)). […] All reactions were carried out for 20 min at room temperature in a 100-μL volume in Tris buffer (50 mM, pH 8.5). Additionally, stock solutions and serial dilutions of potential DAO inhibitors were made in 10:90 DMSO:buffer with a final assay DMSO concentration of 1%.

Sequence of Porcine DAAO (P00371 whole entry): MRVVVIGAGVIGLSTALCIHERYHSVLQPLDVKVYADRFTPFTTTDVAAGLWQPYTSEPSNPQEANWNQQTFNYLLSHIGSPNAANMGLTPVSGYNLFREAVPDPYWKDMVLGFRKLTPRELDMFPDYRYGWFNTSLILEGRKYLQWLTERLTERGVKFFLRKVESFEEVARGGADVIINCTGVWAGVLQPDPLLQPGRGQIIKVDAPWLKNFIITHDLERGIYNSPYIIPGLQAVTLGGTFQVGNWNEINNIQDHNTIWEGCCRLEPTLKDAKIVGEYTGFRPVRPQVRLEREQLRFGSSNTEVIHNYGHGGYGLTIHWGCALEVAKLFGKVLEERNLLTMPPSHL

| Structure (SMILES) | IC50 [nM] |
| --- | --- |
| O=c1[nH]c(=O)n(CCc2ccc(N3CCOCC3)cc2)nc1O [Compound 32, 6-Hydroxy-2-(4-morpholinophenethyl)-1,2,4-triazine-3,5(2H,4H)-dione] | 1000 |
| Cc1ccc2ccccc2c1Cn1nc(O)c(=O)[nH]c1=O [Compound 10u, 6-Hydroxy-2-((2-methylnaphthalen-1-yl)methyl)-1,2,4-triazine-3,5(2H,4H)-dione] | 600 |
| CCOc1ccc(CCn2nc(O)c(=O)[nH]c2=O)cc1 [Compound 10t, 2-(4-Ethoxyphenethyl)-6-hydroxy-1,2,4-triazine-3,5(2H,4H)-dione] | 300 |

Target: human recombinant D-amino acid oxidase (Homo sapiens (Human), UniProt P14920)
Sequence (P14920 whole entry): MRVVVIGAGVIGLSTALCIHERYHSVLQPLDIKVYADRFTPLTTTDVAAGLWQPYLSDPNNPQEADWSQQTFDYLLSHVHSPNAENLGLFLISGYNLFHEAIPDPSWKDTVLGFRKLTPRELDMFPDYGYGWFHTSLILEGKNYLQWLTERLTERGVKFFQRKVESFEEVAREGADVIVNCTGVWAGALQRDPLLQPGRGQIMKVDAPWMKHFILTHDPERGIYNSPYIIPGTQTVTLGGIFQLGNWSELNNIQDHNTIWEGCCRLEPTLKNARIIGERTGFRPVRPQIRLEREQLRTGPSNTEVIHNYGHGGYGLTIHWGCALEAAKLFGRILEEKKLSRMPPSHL
Experiment: In vitro D-amino acid oxidase (DAAO) assay, 96-well plate
Type: biochemical
Details: human recombinant DAAO; D-serine 5 mM, FAD 1 μM, 20 min, room temperature, Tris buffer pH 8.5; read-out: Inhibition of DAAO IC50
Procedure: as §1

| Structure (SMILES) | IC50 [nM] |
| --- | --- |
| O=c1[nH]c(=O)n(CCc2ccccc2)nc1O [Compound 5a, 6-Hydroxy-2-phenethyl-1,2,4-triazine-3,5(2H,4H)-dione] | 80 |
| O=c1[nH]c(=O)n(CCc2ccc(Cl)cc2)nc1O [Compound 5e, 2-(4-Chlorophenethyl)-6-hydroxy-1,2,4-triazine-3,5(2H,4H)-dione] | 30 |
| O=c1[nH]c(=O)n(CCc2ccc(Cl)cc2Cl)nc1O [Compound 5m, 2-(2,4-Dichlorophenethyl)-6-hydroxy-1,2,4-triazine-3,5(2H,4H)-dione] | 80 |
| Cn1nc(O)c(=O)[nH]c1=O [Compound 5p, 6-Hydroxy-2-methyl-1,2,4-triazine-3,5(2H,4H)-dione] | 3000 |
| O=c1[nH]c(=O)n(Cc2ccc3ccccc3c2)nc1O [Compound 5aa, 6-Hydroxy-2-(naphthalen-2-ylmethyl)-1,2,4-triazine-3,5(2H,4H)-dione] | 30 |
| O=c1[nH]c(=O)n(Cc2cccc3cc(Br)ccc23)nc1O [Compound 25d, 2-((6-Bromonaphthalen-1-yl)methyl)-6-hydroxy-1,2,4-triazine-3,5(2H,4H)-dione] | 50 |
| O=c1[nH]c(=O)n(Cc2cccc3ccccc23)nc1O [Compound 5u, 6-Hydroxy-2-(naphthalen-1-ylmethyl)-1,2,4-triazine-3,5(2H,4H)-dione] | 50 |
| O=C(Cn1nc(O)c(=O)[nH]c1=O)c1ccccc1 [Compound 20, 6-Hydroxy-2-(2-oxo-2-phenylethyl)-1,2,4-triazine-3,5(2H,4H)-dione] | 1000 |
| O=c1[nH]c(=O)n(CCc2cccc(Oc3ccccc3)c2)nc1O [Compound 5ad, 6-Hydroxy-2-(3-phenoxyphenethyl)-1,2,4-triazine-3,5(2H,4H)-dione] | 300 |
| O=c1[nH]c(=O)n(CCn2cnc3ccccc32)nc1O [Compound 10f, 2-(2-(1H-benzo[d]imidazol-1-yl)ethyl)-6-hydroxy-1,2,4-triazine-3,5(2H,4H)-dione] | 300 |
| O=c1[nH]c(=O)n(CCc2cc(F)cc(F)c2)nc1O [Compound 10r, 2-(3,5-Difluorophenethyl)-6-hydroxy-1,2,4-triazine-3,5(2H,4H)-dione] | 200 |
| O=c1[nH]c(=O)n(CCN2CCN(c3ccccc3F)CC2)nc1O [Compound 12c, 2-(2-(4-(2-Fluorophenyl)piperazin-1-yl)ethyl)-6-hydroxy-1,2,4-triazine-3,5(2H,4H)-dione] | 3000 |
| O=c1[nH]c(=O)n(CCc2ccc(-c3ccccc3)cc2)nc1O [Compound 5o, 2-(2-(Biphenyl-4-yl)ethyl)-6-hydroxy-1,2,4-triazine-3,5(2H,4H)-dione] | 30 |
| COc1cccc(CCn2nc(O)c(=O)[nH]c2=O)c1 [Compound 5w, 6-Hydroxy-2-(3-methoxyphenethyl)-1,2,4-triazine-3,5(2H,4H)-dione] | 100 |
| O=c1[nH]c(=O)n(CC(F)(F)c2ccccc2)nc1O [Compound 10a, 2-(2,2-Difluoro-2-phenylethyl)-6-hydroxy-1,2,4-triazine-3,5(2H,4H)-dione] | 400 |
| O=c1[nH]c(=O)n(CCn2c3ccccc3c3ccccc32)nc1O [Compound 10i, 2-(2-(9H-carbazol-9-yl)ethyl)-6-hydroxy-1,2,4-triazine-3,5(2H,4H)-dione] | 7000 |
